In this assay the test system is human Z138 mantle cell lymphoma cell line. Description: Tumor growth inhibition study in vivo, Z138 mantle cell lymphoma xenograft. Further details: species or system SCID beige mice. The procedure:
Cells were co-injected with Matrigel.
Experimental study protocol was reviewed and approved by local government. […] Continuous health monitoring was carried out on regular basis. Diet food (Provimi Kliba 3337) and water (acidified pH 2.5-3) were provided ad libitum.
Animals were controlled daily for clinical symptoms and detection of adverse effects.
The corresponding vehicle was administered on the same days.

In the case of `CCOc1cc(C(C)(C)C)ccc1C1=N[C@@](C)(c2ccc(Cl)cc2)[C@@](C)(c2ccc(Cl)cc2)N1C(=O)N1CCN(CCCS(C)(=O)=O)CC1` [MDM2 inhibitor], the tumor growth inhibition reads like this: (day 35, single agent 75 mg/kg p.o. once daily, three times weekly over 18 days (FIG. 2)) 35%; (day 35, single agent 150 mg/kg p.o. once daily, three times weekly over 18 days (FIG. 3)) 78%.
Take “B-HH6-B-KV1 GE: afucosylated type II anti-CD20 antibody, humanized B-Ly1, glycoengineered; VH SEQ ID No.7, VL SEQ ID No. 20”: the tumor growth inhibition (day 35 after tumor cell inoculation, single agent 0.5 mg/kg i.p. q7d once weekly for 3 weeks, compared to the control group) was determined as 59%.

These data come from patent US20140140988A1, “COMBINATION THERAPY OF AN AFUCOSYLATED CD20 ANTIBODY WITH A MDM2 INHIBITOR” (Roche Glycart AG, priority 2010, published 2014).
